# Experimental data: patent publication US20250145633A1, “SUBSTITUTED FURANOPYRIMIDINE COMPOUNDS AS PDE1 INHIBITORS” (Dart NeuroScience, LLC, priority 2017, published 2025)
# Target: human PDE1B enzyme (Homo sapiens (Human), UniProt Q01064)
# Test: IMAP TR-FRET PDE1B enzymatic assay
# Type: biochemical
# Conditions: negative log of half-maximal molar inhibitory concentration; 200 nM FAM-cAMP; values given as bins
# Summary of the method: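 Full-length GST-tagged human PDE1B (250 pg/well) in IMAP BSA buffer with 10 U/ml calmodulin and 2.5 mM CaCl2; compound pre-incubated 5 min at room temperature, then 200 nM (final) FAM-cAMP for 30 min. IMAP binding reagent/Tb added, 1 h; TR-FRET 520/490 ratio read. IC50 from sigmoidal dose-response fit.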
row,SMILES,PDE1b (pIC50)
1,"Cc1oc2ncnc(NC3(C)CC3)c2c1C(=O)NCc1cnn(-c2cccc(F)c2)c1 [Example 572, N-{[1-(3-Fluorophenyl)-1H-pyrazol-4-yl]methyl}-6-methyl-4-[(1-methylcyclopropyl)amino]furo[2,3-d]pyrimidine-5-carboxamide]",>8
2,"Cc1oc2ncnc(NC3(C)CC3)c2c1C(=O)NC1(C2CCC2)CC1 [Example 150, N-(1-Cyclobutylcyclopropyl)-6-methyl-4-[(1-methylcyclopropyl)amino]furo[2,3-d]pyrimidine-5-carboxamide]",>8
3,"Cc1oc2ncnc(NC3(C)CC3)c2c1C(=O)N1CCC2(C=Cc3ccccc32)CC1 [Example 387, 6-Methyl-N-(1-methylcyclopropyl)-5-({spiro[indene-1,4′-piperidine]-1′-yl}carbonyl)furo[2,3-d]pyrimidin-4-amine]",>8
4,"Cc1cccc(CNC(=O)c2c(C)oc3ncnc(NC4(C)CC4)c23)c1C [Example 238, N-[(2,3-Dimethylphenyl)methyl]-6-methyl-4-[(1-methylcyclopropyl)amino]furo[2,3-d]pyrimidine-5-carboxamide]",>8
5,"COc1cnc(C2CCN(C(=O)c3c(C)oc4ncnc(NC5(C)CC5)c34)CC2)cn1 [Example 365, 5-[4-(5-Methoxypyrazin-2-yl)piperidine-1-carbonyl]-6-methyl-N-(1-methylcyclopropyl)furo[2,3-d]pyrimidin-4-amine]",>8
6,"Cc1oc2ncnc(NC3(C)CC3)c2c1C(=O)N1CCC(c2nccc(C3CC3)n2)CC1 [Example 368, 5-[4-(4-Cyclopropylpyrimidin-2-yl)piperidine-1-carbonyl]-6-methyl-N-(1-methylcyclopropyl)furo[2,3-d]pyrimidin-4-amine]",>8

# Same assay, conditions: negative log of half-maximal molar inhibitory concentration; 200 nM FAM-cAMP; values given as bins; read-out: PDE1b (pIC50) (converted)
row,SMILES,IC50 [nM]
1,"Cc1oc2ncnc(NC3(C)CC3)c2c1C(=O)N1CCOC(c2ccccn2)C1 (stereo not shown) [Example 118, 6-Methyl-N-(1-methylcyclopropyl)-5-[2-(pyridin-2-yl)morpholine-4-carbonyl]furo[2,3-d]pyrimidin-4-amine]",10 to 100
2,"Cc1oc2ncnc(NC3(C)CC3)c2c1C(=O)N1CCc2cncnc2C1 [Example 471, 6-Methyl-N-(1-methylcyclopropyl)-5-f{5H,6H,7H,8H-pyrido[3,4-d]pyrimidine-7-carbonyl}furo[2,3-d]pyrimidin-4-amine]",10 to 100
3,"Cc1oc2ncnc(NC3(C)CC3)c2c1C(=O)NCc1cnn(-c2ccc(F)cc2)c1 [Example 571, N-{[1-(4-Fluorophenyl)-1H-pyrazol-4-yl]methyl}-6-methyl-4-[(1-methylcyclopropyl)amino]furo[2,3-d]pyrimidine-5-carboxamide]",10 to 100
4,"Cc1oc2ncnc(NC3(C)CC3)c2c1C(=O)N1CCN(c2ccnc(F)n2)CC1 [Example 162, 5-[4-(2-Fluoropyrimidin-4-yl)piperazine-1-carbonyl]-6-methyl-N-(1-methylcyclopropyl)furo[2,3-d]pyrimidin-4-amine]",10 to 100
5,"COc1ncc(C2CCN(C(=O)c3c(C)oc4ncnc(NC5(C)CC5)c34)CC2)cn1 [Example 394, 5-[4-(2-Methoxypyrimidin-5-yl)piperidine-1-carbonyl]-6-methyl-N-(1-methylcyclopropyl)furo[2,3-d]pyrimidin-4-amine]",10 to 100
6,"Cc1cccnc1NC(=O)c1c(C)oc2ncnc(NC3(C)CC3)c12 [Example 428, 6-Methyl-4-[(1-methylcyclopropyl)amino]-N-(3-methylpyridin-2-yl)furo[2,3-d]pyrimidine-5-carboxamide]",100 to 1000
7,"Cc1oc2ncnc(NC3(C)CC3)c2c1C(=O)NCc1cc(Br)no1 [Example 318, N-[(3-Bromo-1,2-oxazol-5-yl)methyl]-6-methyl-4-[(1-methylcyclopropyl)amino]furo[2,3-d]pyrimidine-5-carboxamide]",10 to 100
8,"COc1ccccc1C(C)NC(=O)c1c(C)oc2ncnc(NC3(C)CC3)c12 (stereo not shown) [Example 613, N-[1-(2-Methoxyphenyl)ethyl]-6-methyl-4-[(1-methylcyclopropyl)amino]furo[2,3-d]pyrimidine-5-carboxamide]",10 to 100
9,"Cc1ncnc2c1CCN(C(=O)c1c(C)oc3ncnc(NC4(C)CC4)c13)C2 [Example 455, 6-Methyl-5-f{4-methyl-5H,6H,7H,8H-pyrido[3,4-d]pyrimidine-7-carbonyl}-N-(1-methylcyclopropyl)furo[2,3-d]pyrimidin-4-amine]",10 to 100
10,"CON(C)C(=O)c1c(C)oc2ncnc(NC3(C)CC3)c12 [Example 643, N-Methoxy-N,6-dimethyl-4-[(1-methylcyclopropyl)amino]furo[2,3-d]pyrimidine-5-carboxamide]",100 to 1000
11,"Cc1oc2ncnc(NC3(C)CC3)c2c1C(=O)NC1CCC1 [Example 212, N-Cyclobutyl-6-methyl-4-[(1-methylcyclopropyl)amino]furo[2,3-d]pyrimidine-5-carboxamide]",10 to 100
12,"Cc1cnc(CNC(=O)c2c(C)oc3ncnc(NC4(C)CC4)c23)o1 [Example 448, 6-Methyl-N-[(5-methyl-1,3-oxazol-2-yl)methyl]-4-[(1-methylcyclopropyl)amino]furo[2,3-d]pyrimidine-5-carboxamide]",10 to 100
13,"Cc1oc2ncnc(NC3(C)CC3)c2c1C(=O)NC1COC1 [Example 83, 6-Methyl-4-[(1-methylcyclopropyl)amino]-N-(oxetan-3-yl)furo[2,3-d]pyrimidine-5-carboxamide]",100 to 1000
14,"Cc1oc2ncnc(NC3(C)CC3)c2c1C(=O)NCCC(F)(F)F [Example 754, 6-Methyl-4-[(1-methylcyclopropyl)amino]-N-(3,3,3-trifluoropropyl)furo[2,3-d]pyrimidine-5-carboxamide]",10 to 100
15,"Cc1oc2ncnc(NC3(C)CC3)c2c1C(=O)NCc1ccnc(-n2ccnc2)c1 [Example 674, N-{[2-(1H-Imidazol-1-yl)pyridin-4-yl]methyl}-6-methyl-4-[(1-methylcyclopropyl)amino]furo[2,3-d]pyrimidine-5-carboxamide]",10 to 100
16,"Cc1oc2ncnc(NC3(C)CC3)c2c1C(=O)N1CC(c2ncc(C(F)(F)F)cc2F)C1 [Example 38, 5-{3-[3-Fluoro-5-(trifluoromethyl)pyridin-2-yl]azetidine-1-carbonyl}-6-methyl-N-(1-methylcyclopropyl)furo[2,3-d]pyrimidin-4-amine]",10 to 100
17,"COc1ccccc1OCCN(C)C(=O)c1c(C)oc2ncnc(NC3(C)CC3)c12 [Example 558, N-[2-(2-Methoxyphenoxy)ethyl]-N,6-dimethyl-4-[(1-methylcyclopropyl)amino]furo[2,3-d]pyrimidine-5-carboxamide]",10 to 100
18,"Cc1oc2ncnc(NC3(C)CC3)c2c1C(=O)Nc1ccc(N2CCOCC2)nn1 [Example 656, 6-Methyl-4-[(1-methylcyclopropyl)amino]-N-[6-(morpholin-4-yl)pyridazin-3-yl]furo[2,3-d]pyrimidine-5-carboxamide]",100 to 1000
19,"Cc1oc2ncnc(NC3(C)CC3)c2c1C(=O)N1CCn2ccnc2C1 [Example 269, 5-{5H,6H,7H,8H-Imidazo[1,2-a]pyrazine-7-carbonyl}-6-methyl-N-(1-methylcyclopropyl)furo[2,3-d]pyrimidin-4-amine]",10 to 100
